Measurements reported in patent US11078204B2, “Heterocyclic derivatives as PI3K inhibitors” (Incyte Corporation, priority 2018, dated 2021).
Structures can show the parent of a compound that is named as a salt.

Tests used:
[1] = molecular target: PI3Kγ (p110γ) Recombinant Human Protein (Homo sapiens (Human), UniProt P48736); experiment: PI3K-γ Scintillation Proximity Assay; format: biochemical; details: 20 μM PIP2, 2 μM ATP, 13 nM PI3Kγ, 120 min
Source text: Example B. PI3K-γ Scintillation Proximity Assay
(§1) [γ-^33P]ATP (10 mCi/mL) and Wheat Germ Agglutinin (WGA) YSi SPA Scintillation Beads was purchased from Perkin Elmer (Waltham, Mass.). Lipid kinase substrate, D-myo-Phosphatidylinositol 4,5-bisphosphate (PtdInS(4,5)P2)D (+)-sn-1,2-di-O-octanoylglyceryl, 3-O-phospho linked (PIP2), CAS 204858-53-7, was purchased from Echelon Biosciences (Salt Lake City, Utah). PI3Kγ (p110γ) Recombinant Human Protein was purchased from Life technology (Grand Island, N.Y.). ATP, MgCl2, DTT, EDTA, MOPS and CHAPS were purchased from Sigma Aldrich (St. Louis, Mo.).
(§2) The kinase reaction was conducted in polystyrene 384-well Greiner Bio-one white plate from Thermo Fisher Scientific in a final volume of 25 μL. Inhibitors were first diluted serially in DMSO and added to the plate wells before the addition of other reaction components. The final concentration of DMSO in the assay was 2%. The PI3Kγ assay was carried out at room temperature in 20 mM MOPS, pH 6.7, 10 mM MgCl2, 5 mM DTT and CHAPS 0.03%. Reactions were initiated by the addition of ATP, the final reaction mixture consisted of 20 μM PIP2, 2 μM ATP, 0.5 μCi [γ-^33p]ATP, 13 nM PI3Kγ. Reactions were incubated for 120 min and terminated by the addition of 40 μL SPA beads suspended in quench buffer: 163 mM potassium phosphate pH 7.8, 20% glycerol, 25 mM EDTA. The final concentration of SPA beads is 1.0 mg/mL. After the plate sealing, plates were shaken overnight at room temperature and centrifuged at 1500 rpm for 10 min, the radioactivity of the product was determined by scintillation counting on Topcount (PerkinElmer). IC50 determination was performed by fitting the curve of percent of the solvent control activity versus the log of the inhibitor concentration using the GraphPad Prism 6.0 software.

[2] = molecular target: PI3Kδ (p110δ/p85α) Recombinant Human Protein (Homo sapiens (Human), UniProt O00329); experiment: PI3Kδ Scintillation Proximity Assay; format: biochemical; details: 20 μM PIP2, 2 μM ATP, 3.4 nM PI3Kδ, 120 min
Chain of PI3Kδ (p110δ/p85α) Recombinant Human Protein (O00329 whole entry): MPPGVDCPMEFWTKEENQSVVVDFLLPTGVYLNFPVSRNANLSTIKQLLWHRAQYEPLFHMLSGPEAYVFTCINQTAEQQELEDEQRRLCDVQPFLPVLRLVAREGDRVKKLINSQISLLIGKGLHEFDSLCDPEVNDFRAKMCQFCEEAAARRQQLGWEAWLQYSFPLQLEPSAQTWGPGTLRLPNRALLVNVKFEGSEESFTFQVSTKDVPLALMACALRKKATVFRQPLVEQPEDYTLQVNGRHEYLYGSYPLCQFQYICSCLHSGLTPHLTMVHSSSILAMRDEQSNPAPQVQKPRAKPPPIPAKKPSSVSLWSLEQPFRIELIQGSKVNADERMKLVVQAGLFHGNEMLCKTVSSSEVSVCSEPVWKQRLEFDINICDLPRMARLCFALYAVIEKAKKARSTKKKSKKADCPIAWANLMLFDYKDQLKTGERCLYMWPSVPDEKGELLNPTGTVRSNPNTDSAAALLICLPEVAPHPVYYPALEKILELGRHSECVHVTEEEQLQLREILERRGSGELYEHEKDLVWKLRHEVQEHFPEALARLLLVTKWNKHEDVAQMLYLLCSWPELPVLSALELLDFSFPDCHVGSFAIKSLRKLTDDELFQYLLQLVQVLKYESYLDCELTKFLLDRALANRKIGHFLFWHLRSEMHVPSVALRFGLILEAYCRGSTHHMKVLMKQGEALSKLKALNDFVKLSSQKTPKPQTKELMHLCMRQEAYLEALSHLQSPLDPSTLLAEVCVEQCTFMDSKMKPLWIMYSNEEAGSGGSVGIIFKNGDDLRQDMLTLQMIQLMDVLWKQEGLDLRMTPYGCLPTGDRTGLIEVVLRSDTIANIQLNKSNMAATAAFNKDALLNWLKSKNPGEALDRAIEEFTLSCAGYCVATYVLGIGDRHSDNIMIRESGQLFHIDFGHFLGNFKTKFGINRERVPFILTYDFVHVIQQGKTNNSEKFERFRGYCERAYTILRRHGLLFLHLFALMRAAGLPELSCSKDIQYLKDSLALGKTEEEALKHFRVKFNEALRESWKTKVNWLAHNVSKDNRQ
Chain of PI3Kδ (p110δ/p85α) Recombinant Human Protein (P27986 whole entry partner): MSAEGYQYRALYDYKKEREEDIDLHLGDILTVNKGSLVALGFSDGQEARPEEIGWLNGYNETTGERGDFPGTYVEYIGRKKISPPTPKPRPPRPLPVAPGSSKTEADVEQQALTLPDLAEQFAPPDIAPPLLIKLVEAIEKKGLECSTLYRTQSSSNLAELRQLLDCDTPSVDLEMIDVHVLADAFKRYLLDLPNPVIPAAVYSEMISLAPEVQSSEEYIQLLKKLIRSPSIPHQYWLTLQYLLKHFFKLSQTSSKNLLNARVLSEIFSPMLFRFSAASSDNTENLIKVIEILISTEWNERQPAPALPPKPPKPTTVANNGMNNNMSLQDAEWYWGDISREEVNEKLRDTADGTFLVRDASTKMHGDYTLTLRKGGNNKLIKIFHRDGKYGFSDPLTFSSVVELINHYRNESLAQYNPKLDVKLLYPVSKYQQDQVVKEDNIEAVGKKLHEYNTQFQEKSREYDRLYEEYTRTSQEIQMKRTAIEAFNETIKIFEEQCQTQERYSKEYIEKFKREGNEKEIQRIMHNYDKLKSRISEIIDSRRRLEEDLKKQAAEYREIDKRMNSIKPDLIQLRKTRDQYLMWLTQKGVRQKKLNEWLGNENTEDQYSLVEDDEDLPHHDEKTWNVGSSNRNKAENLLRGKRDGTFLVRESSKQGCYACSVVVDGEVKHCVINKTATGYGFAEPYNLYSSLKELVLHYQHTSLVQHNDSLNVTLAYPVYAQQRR
Source text: Example C. PI3Kδ Scintillation Proximity Assay
as §1, with “PI3Kδ (p110δ/p85α)” for “PI3Kγ (p110γ)”, “Eurofins (St Charles, Mo.).” for “Life technology (Grand Island, N.Y.).”
as §2, with “PI3Kδ” for “PI3Kγ”, “[γ-^33P]ATP, 3.4” for “[γ-^33p]ATP, 13”, “PI3Kδ.” for “PI3Kγ.”

[3] = test system: Phosphorylated Ribosomal Protein S6 (RPS6) in THP-1 cells; experiment: THP-1 RPS6 ELISA Assay; format: cell-based; details: Homo sapiens, 2 hours compound, 10 nM MCP-1 for 15 minutes, Phospho-RPS6 ELISA, read-out: PI3Kγ_THP1_RPS6_ELISA IC50
Protocol: Example A. THP-1 RPS6 ELISA Assay To measure the Phosphorylated Ribosomal Protein S6 (RPS6) in cell lysates, THP-1 cells (Human Acute Monocytic Leukemia) are purchased from ATCC (Manassas, Va.) and maintained in RPMI with 10% FBS (Gibco/Life Technologies, Carlsbad, Calif.). For the assay, THP-1 cells are serum starved overnight in RPMI, then plated in RPMI (2×10^5 cells/well in 90 μL) into 96-well flat-bottom tissue culture treated plates (Corning, Corning, N.Y.), in the presence or absence of a concentration range of test compounds. Covered plates are incubated for 2 hours at 37° C., 5% CO2 then treated with or without 10 nM MCP-1 (MYBioSource, San Diego, Calif.) for 15 minutes at 37° C., 5% CO2. Plates are centrifuged at 1600 RPM and supernatants are removed. Cells are lysed in Lysis Buffer (Cell Signaling, Danvers, Mass.) with Protease Inhibitor (Calbiochem/EMD, Germany), PMSF (Sigma, St Louis Mo.), HALTS (Thermo Fisher, Rockford, Ill.) for 30 min on wet ice. Cell lysates are frozen at −80° C. before testing. The lysates are tested in the Human/Mouse/Rat Phospho-RPS6 ELISA (R&D Systems, Inc. Minn, Minn.). The plate is measured using a microplate reader (SpectraMax M5-Molecular Devices, LLC Sunnyvale, Calif.) set to 450 nm with a wavelength correction of 540. IC50 determination is performed by fitting the curve of inhibitor percent inhibition versus the log of the inhibitor concentration using the GraphPad Prism 5.0 software.

Chain of PI3Kγ (p110γ) Recombinant Human Protein (P48736 whole entry): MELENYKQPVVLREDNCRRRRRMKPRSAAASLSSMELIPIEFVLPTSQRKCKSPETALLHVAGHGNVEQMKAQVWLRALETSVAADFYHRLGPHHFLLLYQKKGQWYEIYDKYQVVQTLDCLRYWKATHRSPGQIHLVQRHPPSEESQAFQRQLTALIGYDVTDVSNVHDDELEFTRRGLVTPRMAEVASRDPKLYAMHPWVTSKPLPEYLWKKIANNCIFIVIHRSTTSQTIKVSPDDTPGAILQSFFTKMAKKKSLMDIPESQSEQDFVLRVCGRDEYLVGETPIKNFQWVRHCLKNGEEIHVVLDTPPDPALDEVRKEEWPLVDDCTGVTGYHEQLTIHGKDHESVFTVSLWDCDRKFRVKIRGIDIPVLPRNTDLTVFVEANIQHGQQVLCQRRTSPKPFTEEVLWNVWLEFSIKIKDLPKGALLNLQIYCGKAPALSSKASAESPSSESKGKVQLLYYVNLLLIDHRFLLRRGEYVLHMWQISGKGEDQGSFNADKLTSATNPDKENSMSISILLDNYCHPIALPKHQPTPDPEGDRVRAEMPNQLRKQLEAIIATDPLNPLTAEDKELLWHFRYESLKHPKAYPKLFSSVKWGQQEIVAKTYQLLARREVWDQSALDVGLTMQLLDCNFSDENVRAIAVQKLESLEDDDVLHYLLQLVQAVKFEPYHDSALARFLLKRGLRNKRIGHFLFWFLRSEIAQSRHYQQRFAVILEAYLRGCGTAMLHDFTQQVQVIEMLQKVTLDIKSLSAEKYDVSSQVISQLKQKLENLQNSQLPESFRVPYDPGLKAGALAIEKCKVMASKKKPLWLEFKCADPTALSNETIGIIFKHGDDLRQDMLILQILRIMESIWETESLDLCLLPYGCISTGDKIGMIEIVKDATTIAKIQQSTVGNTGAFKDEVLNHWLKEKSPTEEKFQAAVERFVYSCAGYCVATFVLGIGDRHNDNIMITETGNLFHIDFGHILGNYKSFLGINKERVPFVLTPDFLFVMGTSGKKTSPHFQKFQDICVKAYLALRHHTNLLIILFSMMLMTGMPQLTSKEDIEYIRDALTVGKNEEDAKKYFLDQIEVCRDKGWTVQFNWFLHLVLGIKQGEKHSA

SMILES | IC50 [1] [nM] | IC50 [2] [nM] | IC50 [3] [nM]
C[C@@H](C1CC1)N1Cc2cc(-c3cnc4c(N)nc(C(F)(F)F)cn34)cc(Cl)c2C1=O [Example 1, (S)-5-(8-Amino-6-(trifluoromethyl)imidazo[1,2-a]pyrazin-3-yl)-7-chloro-2-(1-cyclopropylethyl)isoindolin-1-one] | ≤ 100 | < 2000 | ≥ 1000
CSc1cc(-c2cnc3c(N)nc(C(F)(F)F)cn23)cc2c1C(=O)N([C@@H](C)C1CC1)C2 [Example 2, (S)-5-(8-Amino-6-(trifluoromethyl)imidazo[1,2-a]pyrazin-3-yl)-2-(1-cyclopropylethyl)-7-(methylthio)isoindolin-1-one] | ≤ 100 | ≤ 500 | ≥ 1000
C[C@@H](C1CC1)N1Cc2cc(-c3cnc4c(N)nc(C(F)(F)F)cn34)cc(S(C)(=O)=O)c2C1=O [Example 3, (S)-5-(8-Amino-6-(trifluoromethyl)imidazo[1,2-a]pyrazin-3-yl)-2-(1-cyclopropylethyl)-7-(methylsulfonyl)isoindolin-1-one] | ≤ 100 | < 2000 | ≥ 1000
C[C@@H](C1CC1)N1Cc2cc(-c3cnc4c(N)nc(C(F)(F)F)cn34)ccc2C1=O [Example 5, (S)-5-(8-Amino-6-(trifluoromethyl)imidazo[1,2-a]pyrazin-3-yl)-2-(1-cyclopropylethyl)isoindolin-1-one] | ≤ 100 | ≥ 2000 | ≥ 1000
C[C@@H](C1CC1)N1Cc2cc(-c3cnc4c(N)ncnn34)ccc2C1=O [Example 6, (S)-5-(4-Aminoimidazo[2,1-f][1,2,4]triazin-7-yl)-2-(1-cyclopropylethyl)isoindolin-1-one] | ≤ 100 | ≥ 2000 | ≥ 1000
C[C@@H](C1CC1)N1Cc2cc(-c3cnc4c(N)ncnn34)cc(Cl)c2C1=O [Example 7, (S)-5-(4-Aminoimidazo[2,1-f][1,2,4]triazin-7-yl)-7-chloro-2-(1-cyclopropylethyl)isoindolin-1-one] | ≤ 100 | ≤ 500 | ≥ 1000
C[C@@H](C1CC1)N1Cc2cc(-c3cnc4c(N)ncnn34)cc(S(C)(=O)=O)c2C1=O [Example 8, (S)-5-(4-Aminoimidazo[2,1-f][1,2,4]triazin-7-yl)-2-(1-cyclopropylethyl)-7-(methylsulfonyl)isoindolin-1-one] | ≤ 100 | ≤ 500 | < 1000
CC(C)N1Cc2cc(-c3cnc4c(N)nc(C(F)(F)F)cn34)ccc2C1=O [Example 13, 5-(8-Amino-6-(trifluoromethyl)imidazo[l,2-a]pyrazin-3-yl)-2-isopropylisoindolin-1-one trifluoroacetate salt] | ≤ 100 | ≥ 2000 | ≥ 1000

The next lines start with the values.

IC50 [1] [nM] | IC50 [2] [nM] | IC50 [3] [nM] | SMILES
≤ 100 | ≤ 500 | ≥ 1000 | CC(O)c1cc(-c2cnc3c(N)ncnn23)cc2c1C(=O)N([C@@H](C)C1CC1)C2 (mixture of isomers) [Example 16, 5-(4-Aminoimidazo[2,1-f][1,2,4]triazin-7-yl)-2-((S)-1-cyclopropylethyl)-7-(1-hydroxyethyl)isoindolin-1-one trifluoroacetate salt]
≤ 100 | ≥ 2000 | ≥ 1000 | C[C@@H](C1CC1)N1Cc2cc(-c3cnc4c(N)nc(C(=O)NC5CCOCC5O)cn34)ccc2C1=O (mixture of isomers) [Example 32, 8-Amino-3-(2-((S)-1-cyclopropylethyl)-1-oxoisoindolin-5-yl)-N-(3-hydroxytetrahydro-2H-pyran-4-yl)imidazo[1,2-a]pyrazine-6-carboxamide, trifluoroacetate salt]
≤ 100 | < 2000 | ≥ 1000 | C[C@@H](C1CC1)N1Cc2cc(-c3cnc4c(N)ncnn34)cc(C(O)(CO)C(F)(F)F)c2C1=O (mixture of isomers) [Example 39, 5-(4-Aminoimidazo[2,1-f][1,2,4]triazin-7-yl)-2-((S)-1-cyclopropylethyl)-7-(1,1,1-trifluoro-2,3-dihydroxypropan-2-yl)isoindolin-1-one, trifluoroacetate salt]
≤ 100 | < 2000 | ≥ 1000 | C[C@@H](C1CC1)N1Cc2cc(-c3cnc4c(N)nc(C(F)(F)F)cn34)cc(C(O)(CO)C(F)(F)F)c2C1=O (mixture of isomers) [Example 40, 5-(8-Amino-6-(trifluoromethyl)imidazo[1,2-a]pyrazin-3-yl)-2-((S)-1-cyclopropylethyl)-7-(1,1,1-trifluoro-2,3-dihydroxypropan-2-yl)isoindolin-1-one, trifluoroacetate salt]
≤ 100 | ≤ 500 | ≥ 1000 | CC(c1ccccc1)N1Cc2cc(-c3cnc4c(N)ncnn34)ccc2C1=O (racemic) [Example 12, 5-(4-Aminoimidazo[2,1-f][1,2,4]triazin-7-yl)-2-(1-phenylethyl)isoindolin-1-one, trifluoroacetate salt]
≤ 100 | ≥ 2000 | ≥ 1000 | Cc1cc(-c2cnc3c(N)ncnn23)cc2cn(C(C)C3CC3)nc12 (racemic) [Example 18, 7-(2-(1-Cyclopropylethyl)-7-methyl-2H-indazol-5-yl)imidazo[2,1-f][1,2,4]triazin-4-amine trifluoroacetate salt]
≤ 100 | ≤ 500 | ≤ 500 | CC(C)NC(=O)c1cn2c(-c3cc4c(c(S(C)(=O)=O)c3)C(=O)N([C@@H](C)C3CC3)C4)cnc2c(N)n1 (single isomer, unassigned) [Example 28, trifluoroacetate salt]
≤ 100 | ≤ 500 | < 1000 | C[C@@H](C1CC1)N1Cc2cc(-c3cnc4c(N)nc(C(=O)NC56CC(C5)C6)cn34)cc(S(C)(=O)=O)c2C1=O (single isomer, unassigned) [Example 29b, trifluoroacetate salt]
≤ 100 | ≤ 100 | ≤ 500 | Cc1ncc(-c2cn3c(-c4cc5c(c(S(C)(=O)=O)c4)C(=O)N([C@@H](C)C4CC4)C5)cnc3c(N)n2)o1 (single isomer, unassigned) [Example 33, trifluoroacetate salt]
